Laboratory results: patent publication US20110244025A1, “MODIFIED OLIGORIBONUCLEOTIDE ANALOGS WITH ENHANCED IMMUNOSTIMULATORY ACTIVITY” (priority 2005, published 2011)
Entries after “also recorded” stand apart in the source; their conditions may differ. Read-outs that look alike come from different tables or passages of the source. Oligonucleotides are written 5' to 3', each unit as a sugar letter and its base; * is a phosphorothioate linkage, no mark a phosphodiester; rarer units and linkages stand in square brackets, end groups in braces. Plain capitals give the bases only. r = 2'-OH (RNA)

Columns and labels:
[1] = system: human peripheral blood mononuclear cells (PBMC); assay: TNF-α production by human PBMC (ELISA of culture supernatants); assay type: cell-based; settings: human PBMC from three donors, 24 hours, oligonucleotide 0.001-4 μM, in the presence of DOTAP (20 μg/ml); FIG. 3 and FIG. 4
Experimental: (§1) Human peripheral blood mononuclear cells (PBMC) were isolated from three donors and incubated for 24 hours in the presence of various test or control oligonucleotides or control conditions, in either the presence or absence of DOTAP (20 μg/ml). Oligonucleotides were added at different concentrations ranging from 0.001-4 μM. Culture supernatants were then collected and then analyzed by separate enzyme-linked immunosorbent assays (ELISAs) specific for human interferon alpha (IFN-α) and tumor necrosis factor alpha (TNF-α).
(§2) Control oligonucleotides and conditions included R-1012, rU*rU*rU*rU*rU*rU*rU*rU, where * represents phosphorothioate linkage and rU represents uridine; R-1075 (SEQ ID NO:206, fully phosphorothioate backbone), R-1362, rU*rU*rG*rU*rU*rG*rU*rU*rG*rU*rU*rG*rU*rU*rG*rU*rU*rG*rU*rU (SEQ ID NO:331), where * again represents phosphorothioate linkage, rU again represents uridine, and rG represents guanosine; CpG oligodeoxynucleotide 2395, T*C*G*T*C*G*T*T*T*T*C*G*G*C*G*C*G*C*G*C*C*G (SEQ ID NO:330), lipopolysaccharide (LPS), DOTAP, and no additive (w/o).
(§3) Test oligonucleotides included the following modifications of R-1012: R-1907, rU*rU*rU*rU*rU*rU*rU*rU-teg, where teg represents triethylene glycol; R-1908, rU*rU*rU*rU*rU*rU*rU*5SrU-teg, where 5S represents a linkage according to Formula II wherein X is O, X^1 is SH, X^2 is O, and X^3 is S; R-1909, rU*rU*rU*rU*rU*5SrU*rU*5SrU-teg; R-1910, rU*rU*rU*5SrU*rU*5SrU*rU*5SrU-teg; and R-1911, rU*5SrU*rU*5SrU*rU*5SrU*rU*5SrU-teg.

[2] = system: human peripheral blood mononuclear cells (PBMC); assay: IFN-α production by human PBMC (ELISA of culture supernatants); assay type: cell-based; settings: human PBMC from three donors, 24 hours, oligonucleotide 0.001-4 μM, in the presence of DOTAP (20 μg/ml); FIG. 1 and FIG. 2
Experimental: as §1, §2, §3

[3] = Stability against nuclease degradation in human serum (IP-RP-HPLC); assay type: in vitro ADME
Experimental: Oligoribonucleotides R-1075 (SEQ ID NO:206), without triethylene glycol (teg) modification, and R-1907, with teg modification, were analysed using ion-pair reverse phase high pressure liquid chromatography (IP-RP-HPLC) following incubation in water or human serum for 1 to 60 minutes. While both of these oligoribonucleotides have fully phosphorothioate backbones, R-1075 is more than twice as long (18 nucleotides) as R-1907 (8 nucleotides). R-1075 incubated in water for 1 minute produced a single, sharp peak upon IP-RP-HPLC. […] R-1907 also produced a single, sharp peak following incubation in water for 1 minute. […] In fact, the peak height for R-1907 decreased by only about 50 percent following incubation in human serum for 60 minutes.

For “rU*rU*rU*rU*rU*5SrU*rU*5SrU-teg [R-1909]”, the TNF-α production [1] was “significantly higher amounts of TNF-a compared to unmodified R-1012” and the IFN-α production [2] was “increase in IFN-α induction compared to R-1907”.

For rU*rU*rU*rU*rU*rU*rU*5SrU-teg [R-1908], the TNF-α production [1] was “significantly higher amounts of TNF-a compared to unmodified R-1012” and the IFN-α production [2] was “increase in IFN-α induction compared to R-1907”.

For rU*rU*rU*rU*rU*rU*rU*rU-teg [R-1907], the TNF-α production [1] was “enhanced TNF-α production compared to unmodified R-1012; also recorded: significantly higher amounts of TNF-a compared to unmodified R-1012”, the “IP-RP-HPLC peak of the oligoribonucleotide after incubation in human serum” value [3] was “persisted essentially unchanged” and the “decrease of IP-RP-HPLC peak height after incubation in human serum” value [3] was “about 50%”. For the same substance, the IFN-α production [2] was “reduced IFN-α production compared to unmodified R-1012”.

For “rU*rU*rU*5SrU*rU*5SrU*rU*5SrU-teg [R-1910]”, the TNF-α production [1] was “significantly higher amounts of TNF-a compared to unmodified R-1012” and the IFN-α production [2] was “did not induce significant amounts of IFN-α”.

In the case of “R-1075: control oligoribonucleotide, SEQ ID NO:206 (CCGUCUGUUGUGUGACUC), fully phosphorothioate backbone, 18 nucleotides, without teg modification (rC*rC*rG*rU*rC*rU*rG*rU*rU*rG*rU*rG*rU*rG*rA*rC*rU*rC) [reference compound]”, the “IP-RP-HPLC peak of the oligoribonucleotide after incubation in human serum” value ([3]; human serum, 1 minute, compared with incubation in water for 1 minute) is reported as “essentially completely disappeared”.

For “rU*5SrU*rU*5SrU*rU*5SrU*rU*5SrU-teg [R-1911]”, the TNF-α production [1] was “significantly higher amounts of TNF-a compared to unmodified R-1012” and the IFN-α production [2] was “did not induce significant amounts of IFN-α”.
